The text below walks through data of EP0319986B1, “Anti-plasmin depressant” (NIPPON SHINYAKU COMPANY, LIMITED, priority 1987, dated 1989).

Structures can show the parent of a compound that is named as a salt.

The first data set concerns CPAE (calf pulmonary artery endothelia). Description: Thrombolytic test in vitro: CPAE culture supernatant on fibrin plate, lysis circle. Format: cell-based. The following applies: 5 µl of 0.2 mg/ml compound solution per well of CPAE cells, 72 hours; 5 µl supernatant on fibrin plate with plasminogen, 4 hours; 4 mm or more = thrombolytic ability induced. On the procedure:
Thrombolytic activity-inducing ability in the established vascular endothelial cell culture system was examined using CPAE (calf pulmonary artery endothelia).
[…] cells were purchased from Dainippon Pharmaceutical Co., Ltd., Department of Laboratory Products. CPAE cells were subcultured in 10% FCS-Eagle MEM medium charged in a culture flask of 25 cm^2. From the cell suspension fractionated upon subculture, 0.1 ml was transferred into a test tube with a sterilized pipette. Then, the cell suspension was diluted to 10 fold with 0.9 ml of Trypan Blue solution and a cell count was counted with a cell counter. After diluting with 10% FCS-Eagle MEM medium so as to have a cell count of 2 x 10^5 cells/ml, 100 µl each/well, namely, 2 x 10^4 cells/well, of the dilution was dispensed in a 96 well microtiter plate (manufactured by Corning) with a micropipette. The plate was incubated at 37°C in 5% CO2.
The compound used according to the present invention was dissolved in medium in 0.2 mg/ml; the compound that was insoluble in the medium was dissolved in less than 1% of DMSO and the resulting solution was aseptically filtered through a filter; 5 µl of the solution was added to the well with a sterilized micropipette 24 hours after onset of the incubation. After culturing at 37°C for 72 hours in 5% CO2, the collected culture supernatant was provided for measurement.
The measurement was performed as follows. Plasminogen, 5 µl, was charged in a well of fibrin plate (manufactured by Kitazato institute), which was allowed to stand until diffusion was completed. After diffusion, 5 µl of the supernatant was charged and then put in a carbon dioxide gas incubator of 37°C. Four hours after, evaluation was made by formation of a transparent lysis circle by fibrinolysis.
In the case of forming a circle of 4 mm or more due to fibrinolysis, it was judged that thrombolytic ability of CPAE cells was induced.
After the fibrinolytic activity was checked over, the well was fixed with 2.5% of glutaraldehyde in a final concentration. Then, the solution was discarded and the system was washed with PBS. After washing, moisture was removed. After staining with 100 µl of 0.1% crystal violet and allowing stand for 2 to 3 minutes, the system was washed with running water. After an excess of the staining solution was washed out, moisture was removed and the dye bound to the cells was eluted by 100 µl of methanol. Using multiscanning (Titertech), measurements were performed at a wavelength of 580 nm in accordance with the ABS method and the matrix method to confirm that the cells were not injured.
With `OC[C@@H]1[C@@H](O)[C@H](O)[C@@H](O)CN1CCC1CCCC1` [Compound No. 19, N-(2-Cyclopentylethyl)moranoline tosylate], the “Diameter (mm) of the circle due to fibrinolysis” value (“Diameter (mm) of the circle due” below) is on record as 5.8 mm.

As to `OC[C@@H]1[C@@H](O)[C@H](O)[C@@H](O)CN1CCCCc1ccccc1` [Compound No. 15, N-4-Phenylbutylmoranoline tosylate], the “Diameter (mm) of the circle due” value was determined as 6.3 mm. In the case of `OC[C@@H]1[C@@H](O)[C@H](O)[C@@H](O)CN1CCCOc1ccccc1` [Compound No. 17, N-(3-Phenoxypropyl)moranoline tosylate], the “Diameter (mm) of the circle due” value was determined as 7.5 mm. The same measure, in the same setting: in the case of `CCCCCCN1C[C@H](O)[C@@H](O)[C@H](O)[C@H]1CO` [Compound No. 8, N-Hexylmoranoline tosylate] it was 6.3 mm; in that of `OC[C@@H]1[C@@H](O)[C@H](O)[C@@H](O)CN1CC=Cc1ccccc1` [Compound No. 14, N-Cinnamylmoranoline hydrochloride], 5.9 mm; in that of `CCCCN1C[C@H](O)[C@@H](O)[C@H](O)[C@H]1CO` [Compound No. 2a, N-(n-Butyl)moranoline], 7.5 mm. For the compound `CCN1C[C@H](O)[C@@H](O)[C@H](O)[C@H]1CO` [Compound No. 22, N-Ethylmoranoline], the “Diameter (mm) of the circle due” value was 6.5 mm. Take `CC(C)Oc1ccc(C=CCN2CC(O)C(O)C(O)C2CO)cc1` (stereo not shown) [Compound No. 34, N-(p-Isopropoxycinnamyl)moranoline]: the “Diameter (mm) of the circle due” value is given as 7.6 mm. Take `CNC(=O)CCCCCCCCCCN1C[C@H](O)[C@@H](O)[C@H](O)[C@H]1CO` [Compound No. 27, N-10-(N-Methylcarbamoyl)decylmoranoline]: the “Diameter (mm) of the circle due” value turned out to be 8.5 mm. Regarding `Cc1ccc(CCCCN2C[C@H](O)[C@@H](O)[C@H](O)[C@H]2CO)cc1F` [Compound No. 32, N-[4-(3-Fluoro-4-methylphenyl)butyl]moranoline], the “Diameter (mm) of the circle due” value amounted to 7.5 mm. Still for that read-out and setting: with `C[N+]1(C)C[C@H](O)[C@@H](O)[C@H](O)[C@H]1CO` [Compound No. 21, N,N-Dimethylmoranoline ammonium iodide] the figure was 5.6 mm. Still for that read-out and setting: with `OC[C@@H]1[C@@H](O)[C@H](O)[C@@H](O)CN1CCCOc1ccccc1Cl` [Compound No. 30, N-(3-o-Chlorophenoxypropyl)moranoline] the figure was 7.6 mm. As for `CC(=CCN1C[C@H](O)[C@@H](O)[C@H](O)[C@H]1CO)c1ccc(Br)cc1` [Compound No. 31, N-(γ-Methyl-4-bromocinnamyl)moranoline], the “Diameter (mm) of the circle due” value was 7.9 mm. For `OCC1C(O)C(O)C(O)CN1CC=Cc1ccccc1` (stereo not shown) [Compound No. 23, N-Cinnamylmoranoline], the “Diameter (mm) of the circle due” value is 8.4 mm.

As for `CCOC(=O)c1ccc(OCCN2C[C@H](O)[C@@H](O)[C@H](O)[C@H]2CO)cc1` [Compound No. 37, N-(p-Ethoxycarbonylphenoxyethyl)moranoline], the “Diameter (mm) of the circle due” value came to 6.9 mm. Regarding `OC[C@@H]1[C@@H](O)[C@H](O)[C@@H](O)CN1CCC=Cc1ccccc1` [Compound No. 28, N-(4-Phenyl-3-butenyl)moranoline tosylate], the “Diameter (mm) of the circle due” value was found to be 8.3 mm. Still for that read-out and setting: in the case of `CC(=CCN1C[C@H](O)[C@@H](O)[C@H](O)[C@H]1CO)c1cccc(C)c1` [Compound No. 35, N-(γ-Methyl-m-methylcimnnamyl)moranoline] it was 7.8 mm; in that of `CC(C)=CCC/C(C)=C/CN1C[C@H](O)[C@@H](O)[C@H](O)[C@H]1CO` [Compound No. 24, N-Geranylmoranoline tosylate], 7.6 mm; in that of `COc1cccc(C(C)=CCCN2C[C@H](O)[C@@H](O)[C@H](O)[C@H]2CO)c1` [Compound No. 36, N-(4-m-Methoxyphenyl-3-pentenyl)moranoline], 7.6 mm.

As to `CC(=Cc1ccccc1)CN1C[C@H](O)[C@@H](O)[C@H](O)[C@H]1CO` [Compound No. 29, N-(3-Phenyl-2-methyl-2-propenyl)moranoline], the “Diameter (mm) of the circle due” value was found to be 7.1 mm. Same read-out and setting: with N-Isoprenylmoranoline [Compound No. 9] the figure was 8.2 mm; with `OC[C@@H]1[C@@H](O)[C@H](O)[C@@H](O)CN1CCCc1ccccc1` [Compound No. 12, N-(3-Phenylpropyl)moranoline tosylate], 5.9 mm. On to `COCCOc1cccc(C(C)=CCN2C[C@H](O)[C@@H](O)[C@H](O)[C@H]2CO)c1` [Compound No. 20, N-[3-(3-Methoxyethoxyphenyl)-2-butenyl]moranoline], for which the “Diameter (mm) of the circle due” value was 8.0 mm. Same read-out and setting: with `CCCCCCCCC(O)CN1C[C@H](O)[C@@H](O)[C@H](O)[C@H]1CO` (stereo partly shown) [Compound No. 10, N-(2-Hydroxydecyl)moranoline tosylate] the figure was 4.5 mm; with `OC[C@@H]1[C@@H](O)[C@H](O)[C@@H](O)CN1CC(O)COc1ccccc1` (stereo partly shown) [Compound No. 25, N-(2-Hydroxy-3-phenoxypropyl)moranoline tosylate], 4.1 mm; with `CC(C)=CCCC(C)=CCCC(C)=CCN1CC(O)C(O)C(O)C1CO` (stereo not shown) [Compound No. 26, N-Farnesylmoranoline tosylate], 5.7 mm. As to `OC[C@@H]1[C@@H](O)[C@H](O)[C@@H](O)CN1CCCCCc1ccccc1` [Compound No. 18, N-5-(Phenylpentyl)moranoline tosylate], the “Diameter (mm) of the circle due” value is recorded as 6.8 mm. As for `CCOc1ccc(C=CCN2CC(O)C(O)C(O)C2CO)cc1` (stereo not shown) [Compound No. 33, N-(p-Ethoxycinnamyl)moranoline], the “Diameter (mm) of the circle due” value stood at 7.8 mm.

With `O[C@H]1[C@H](O)[C@@H](O)CN2CC[C@H](O)[C@H]12` [Compound No. 38, Castanospermine], the “Diameter (mm) of the circle due” value stood at 6.9 mm.

System in the next data set: not listed separately
Briefly: Test on acute toxicity. Conditions: mouse, in vivo, ip. As to the method: Four (4) ddY strain male mice of 6 week age were used for each group of the test sample.
In intravenous administration, each sample was dissolved in 0.9% physiological saline and the solution was administered through the tail vein. In intraperitoneal administration, each sample was suspended in 0.5% CMC-physiological saline and 0.1 ml of the suspension per […] of mouse body weight was intraperitoneally administered. In oral administration, each sample was suspended in 0.5% CMC-physiological saline and 0.2 ml of the suspension per […] administered.
Observation was made immediately after the administration. After observation for 1 week after the administration, the mice was sacrificed with chloroform and subjected to autopsy.
As usually defined, the LD50 is the dose expected to kill half of the subjects tested. The compound `OC[C@H]1NC[C@H](O)[C@@H](O)[C@@H]1O` [Compound No. 1, Moranoline] returned a median lethal dose (LD50) at 168 h of 5000 mg/kg.

Still in this data set, the particulars now being: mouse, in vivo, iv.
Turning to `OC[C@H]1NC[C@H](O)[C@@H](O)[C@@H]1O` [Compound No. 1, Moranoline], the median lethal dose (LD50) at 168 h turned out to be 3240 mg/kg.

Still in this data set, the particulars now being: mouse, in vivo, po.
On to `OC[C@H]1NC[C@H](O)[C@@H](O)[C@@H]1O` [Compound No. 1, Moranoline], for which the 50% lethal dose (LD50) at 168 h amounted to 7500 mg/kg.

Another data set relates to α2-plasmin inhibitor (α2-PI). Briefly: α2-PI activity in culture medium of HepG2 cells (plasmin / S-2251 chromogenic substrate). It is filed as cell-based, human. Conditions: 200 µg/ml of compound, serum-free medium, 3 to 4 days, culture without test compound = 100%, n=3. As to the method: It is known that human hepatic cancer-derived HepG2 cells synthesize and secrete α2-plasmin inhibitor (α2-PI). The HepG2 cells, 2 x 10^6, were inoculated on a plastic culture plate (diameter of 100 mm) made by Falcon Inc. and cultured in Eagle's minimum medium containing 10% bovine fetal serum.
Three days after, cells adhered to the bottom of the plate were washed twice with Dulbecco's phosphate buffer followed by culturing in 8 ml of serum-free Eagle's medium (containing no Phenol Red) containing 200 µg/ml of a specimen of the compound of the present invention for further 3 to 4 days. […]
To 100 µl of the concentrated sample, 50 µl of 15 mCU plasmin solution was added and further 50 µl of 0.25 µmole S-2251 synthetic chromogenic substrate solution was added thereto followed by reacting at 37°C for 10 minutes. By adding 1 ml of 2% citrate solution, the reaction was stopped. p-Nitroanilide released from the S-2251 substrate was measured at O.D. of 405 nm.
A sample in which decomposition of the S-2251 substrate was measured using the aforesaid Tris buffer instead of the concentrated sample was made a control showing 100% plasmin activity and the concentrated sample cultured without adding a test compound was made a control showing 100% α2-PI activity. […]
Regarding Nojirimycin bisulfite [Compound No. 6], the “α2-PI activity (%)” value was found to be 67%.

For N-Isoprenylmoranoline [Compound No. 9], the “α2-PI activity (%)” value was 55%.
